Data published in PMC5000756, “Involvement of Three Esterase Genes from Panonychus citri (McGregor) in Fenpropathrin Resistance” (International Journal of Molecular Sciences, 2016).

Target: T1, PcE1 (Panonychus citri, UniProt D7NHW8)
T1 construct: ORF in pFastBac HTA, baculovirus-infected Sf9 cells; supernatant of cell homogenate
T1 sequence (D7NHW8 19-550): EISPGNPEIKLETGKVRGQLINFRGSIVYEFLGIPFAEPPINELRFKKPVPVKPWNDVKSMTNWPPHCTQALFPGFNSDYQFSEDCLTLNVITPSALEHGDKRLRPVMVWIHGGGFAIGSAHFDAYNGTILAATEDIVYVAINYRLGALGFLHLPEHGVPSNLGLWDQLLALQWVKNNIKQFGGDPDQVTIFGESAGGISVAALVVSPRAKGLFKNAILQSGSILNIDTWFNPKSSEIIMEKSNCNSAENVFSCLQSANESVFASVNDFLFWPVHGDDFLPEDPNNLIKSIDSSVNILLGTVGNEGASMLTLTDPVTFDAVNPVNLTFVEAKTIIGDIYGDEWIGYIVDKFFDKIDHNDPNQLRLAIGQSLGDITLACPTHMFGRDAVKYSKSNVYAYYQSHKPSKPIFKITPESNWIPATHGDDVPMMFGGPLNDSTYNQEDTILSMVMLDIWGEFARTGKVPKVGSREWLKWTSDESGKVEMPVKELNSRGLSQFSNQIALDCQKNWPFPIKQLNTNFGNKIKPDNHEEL
Assay: spectrophotometric, fast blue coupling, […] nm
Assay type: biochemical
Conditions: Sf9 cell lysate versus GFP control; pH 7.0, 30 °C

## CC(=O)Oc1cccc2ccccc12 [α-naphthyl acetate]
  spectrophotometric, fast blue coupling, 600 nm: All recombinant proteins showed significant catalytic activities when α-NA was used as the substrate
